Assay results reported in US7647217B2, “Structure of the farnesoid X receptor ligand binding domain and methods of use therefor” (The Salk Institute for Biological Studies, priority 2002, dated 2010).

Test system: IBABP mRNA in HT29-FXRFL cells
Assay: Northern blot of IBABP mRNA induction in HT29 stable cell lines
Format: cell-based, human
Experimental: 20 μg total RNA was isolated using Trizol (Invitrogen) and used for Northern blot analysis. cDNA probe for human IBABP was prepared and hybridized to the blot. Blots were normalized by β-actin expression.
HepG2 or HT29-derived cell lines were typically cultured in medium containing superstripped FBS for 24 hr before the addition of a ligand or DMSO (vehicle) for an additional 24-48 hr. Total RNA was isolated using TRIzol reagent and was resolved (10 μg/lane) on a 1% agarose, 2.2 M formaldehyde gel, transferred to a nylon membrane (Hybond N^+; Amersham Biosciences, Inc.), and cross-linked to the membrane with UV light.
cDNA probes were radiolabeled with [α-^32P]dCTP using the highprime labeling kit (Amersham Biosciences, Inc.). Membranes were hybridized using the QuikHyb hybridization solution (Stratagene, La Jolla, Calif.) according to the manufacturer's protocol. Blots were normalized for variations of RNA loading by hybridization to a control probe, either, 18 S ribosomal cDNA, or the ribosomal protein 36B4. The RNA levels were quantitated using a PhosphorImager (ImageQuant software; Molecular Dynamics, Inc., Sunnyvale, Calif.) in addition to being exposed to X-ray film.
Human colon cells HT29 (FXR null until differentiated) were infected with retroviral vectors that expressed either FXR constructs and the puromycin-resistant gene or the puromycin-resistant gene alone. Puromycin resistant cells were isolated and pooled cell populations were propagated that harbored either the vector alone (HT29-BABE), overexpressed FXR full length (HT29-FXRFL), a non-functional FXR truncated at the AF2 region (HT29-FXR-AF2), or a constitutively active FXR that has the VP16 activation domain fused N-terminal of the protein (HT29-VP16-FXR). Confirmation of the successful establishment of the different stable cell lines was established via northern blot analysis of FXR message levels in the cells (see FIG. 4A). […]
The ability of the novel compounds identified herein to induce IBABP gene expression in this cell system was also examined. Total RNA from HT29 stable cells treated overnight with fexaramine, fexarine and fexarene was probed for IBABP gene expression (see FIG. 4D).

[1] = HT29-FXRFL, overnight treatment

C[C@H](CCC(=O)O)[C@H]1CC[C@H]2[C@@H]3[C@H](O)C[C@@H]4C[C@H](O)CC[C@]4(C)[C@H]3CC[C@]12C [CDCA, chenodeoxycholic acid, reference compound]
induction of IBABP mRNA in control lines (HT29-BABE or HT29-FXR-AF2 cell lines): No induction | concentration of maximal activation of the IBABP gene [1]: 100 µM | induction of IBABP mRNA [1]: robust concentration dependent induction
